Experimental data as given in patent US20070149469A1, “Medical use of tbk-1 or of inhibitors thereof” (priority 2003, published 2007).

Assays:
[1] = test system: normal human dermal fibroblasts (NHDF); assay: NHDF proliferation after transfer of supernatants from transfected HEK 293 cells, Alamar Blue; assay type: cell-based; settings: 25 μl HEK 293 supernatant, 4 days, versus empty vector
Protocol: In order to investigate the cell type specificity of TBK-1, supernatants from transfected HEK 293 cells were also added to normal human dermal fibroblasts (NHDF). NHDF were seeded at 1,000 cells per well on 96-well tissue culture plates two days prior to the transfer in 100 μl complete Fibroblast Growth Medium (Promocell, Heidelberg). 24 h prior to the transfer the medium was changed to 100 μl Fibroblast Basal Medium (Promocell, Heidelberg) containing 75 μg/ml gentamycin, 50 ng/ml amphotericin B. After 25 μl of HEK 293 supernatant had been transferred, cells were incubated for 4 days and viable cell number was assessed by Alamar Blue reduction as above.

[2] = test system: TBK-1 mRNA; assay: TBK-1 mRNA knock down by RNAi in HEK 293 cells, quantitative RT-PCR relative to G6PDH; assay type: cell-based, human; settings: 100 nM siRNA
Protocol: Real-time PCR was carried out using a LightCycler (Roche Diagnostics). Reactions were set up in microcapillary tubes using the following final concentrations: 0.5 μM each of TBK-1 sense (TTGAAGAGGAGACAACAACAAGA) and TBK-1 antisense (CAT TCC ACC CAC CAC ATC T) primers, 3 mM MgCl2, 1×SYBR Greenmaster mix and 2 μl of cDNA.
(§1) Cycling conditions for TBK-1 were as follows: denaturation (95° C. for 10 min), amplification and quantitation (95° C. for 10 s, 58° C. for 10 s and 72° C. for 13 s, with a single fluorescence measurement at the end of the 72° C. for 13 s segment) repeated 45 times. A melting curve program (55-95° C. with a heating rate of 0.1° C./s and continuous fluorescence measurement) and a cooling step to 40° C. followed.
(§2) For relative quantification the procedure was repeated for G6PDH mRNA as reference gene. Data were analyzed using LightCycler analysis software.
(§3) HEK 293 cells were transfected with double stranded RNAi oligos specific for TBK-1 using siPORT Amine according to the manufacture's protocol (Ambion Europe LTD, Cambridgeshire, United Kingdom). […] Under these conditions, increased expression of VEGF is observed and can be detected via VEGF ELISA (as shown in example 3).
To determine the functionality of the RNAi molecule regarding inhibition of TBK-1 expression, relative expression levels of TBK-1 mRNAs were analysed by quantitative real-time PCR. […]

[3] = test system: VEGF mRNA; assay: Hypoxia (CoCl2)-induced VEGF mRNA expression in HEK 293 cells after TBK-1 RNAi, quantitative RT-PCR relative to G6PDH; assay type: cell-based, human; settings: 100 nM siRNA
Protocol: Real-time PCR was carried out using a LightCycler (Roche Diagnostics). Reactions were set up in microcapillary tubes using the following final concentrations: 0.5 μM each of VEGF sense (CTTGCCTTGCTGCTCTACCT) and VEGF antisense (GATTCTGCCCTCCTCCTTCT) primers, 3 mM MgCl2, 1×SYBR Greenmaster mix and 2 μl of cDNA. For TBK-1 0.5 μM each of TBK-1 sense (TTGAAGAGGAGACAACAACAAGA) and TBK-1 antisense (CAT TCC ACC CAC CAC ATC T) primers were used.
as §1, with “VEGF” for “TBK-1”, “followed. Cycling conditions for TBK-1 were identical.” for “followed.”
as §2
as §3, with “3). […]” for “3).”

FGF-2
stimulation of NHDF proliferation [1]: clearly responsive

TBK-1 RNAi: double stranded RNAi oligo specific for TBK-1: sense GGA GAC AAC AAC AAG ACA Utt, antisense AUG UCU UGU UGU UGU CUC Ctc (sense GGAGACAACAACAAGACAU; antisense AUGUCUUGUUGUUGUCUCCC; listed as RNA, chemistry not given here)
inhibition of expression of TBK-1 mRNA [2]: > 85%
induction of VEGF mRNA under hypoxia [3]: significantly reduces
